What is called IC50 is the concentration that inhibits the measured activity by half.

The target of the assay is T1, recombinant human Myt1 (full length PKMYT1) (Homo sapiens, UniProt Q99640).
T1 sequence (Q99640 1-499): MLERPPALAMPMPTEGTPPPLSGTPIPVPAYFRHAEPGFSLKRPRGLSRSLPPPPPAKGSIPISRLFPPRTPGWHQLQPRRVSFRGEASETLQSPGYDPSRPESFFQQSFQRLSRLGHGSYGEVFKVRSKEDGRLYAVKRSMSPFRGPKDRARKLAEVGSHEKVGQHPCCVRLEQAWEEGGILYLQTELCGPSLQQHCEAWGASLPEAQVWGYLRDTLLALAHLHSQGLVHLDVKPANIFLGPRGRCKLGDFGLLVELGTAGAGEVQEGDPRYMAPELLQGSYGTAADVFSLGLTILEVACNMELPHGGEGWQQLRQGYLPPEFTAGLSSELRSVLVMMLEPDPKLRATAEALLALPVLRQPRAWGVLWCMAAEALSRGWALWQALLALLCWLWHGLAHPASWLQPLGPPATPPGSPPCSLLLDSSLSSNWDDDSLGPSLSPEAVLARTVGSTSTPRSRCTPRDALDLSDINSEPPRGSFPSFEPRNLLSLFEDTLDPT
The assay can be described thus: ADP-Glo assay (Myt1 kinase activity). Background: ADP-Glo turns the ADP formed in a reaction into a luminescent signal.
Regarding `Cc1cc2[nH]c(=O)c(N)c(-c3ccc(F)c4[nH]ncc34)c2nc1-c1cscn1` [Example 152, 3-Amino-4-(7-fluoro-1H-indazol-4-yl)-7-methyl-6-thiazol-4-yl-1H-1,5-naphthyridin-2-one], the IC50 came to 13.8 nM.

In the case of `Cc1cc2[nH]c(=O)c(N)c(-c3ccc(F)c4[nH]ncc34)c2nc1-c1ncco1` [Example 154, 3-Amino-4-(7-fluoro-1H-indazol-4-yl)-7-methyl-6-oxazol-2-yl-1H-1,5-naphthyridin-2-one], the IC50 was less than 10 nM.

As to `Cc1cc2[nH]c(=O)c(N)c(-c3ccc(F)c4[nH]ncc34)c2nc1N1CC2(CN(C)C2)C1` [Example 27, 3-Amino-4-(7-fluoro-1H-indazol-4-yl)-7-methyl-6-(6-methyl-2,6-diazaspiro[3.3]heptan-2-yl)-1H-1,5-naphthyridin-2-one], the IC50 came out at 21.2 nM.

As to `CCCOc1nc2c(-c3ccc(F)c4[nH]ncc34)c(N)c(=O)[nH]c2cc1C` [Example 065, 3-Amino-4-(7-fluoro-1H-indazol-4-yl)-7-methyl-6-propoxy-1H-1,5-naphthyridin-2-one], the IC50 is 14.7 nM.

`Cc1c(-c2nccs2)cnc2c(-c3ccc(F)c4[nH]ncc34)c(N)c(=O)[nH]c12` [Example 121, 3-Amino-4-(7-fluoro-1H-indazol-4-yl)-8-methyl-7-thiazol-2-yl-1H-1,5-naphthyridin-2-one]: the IC50 amounted to 10.7 nM.

As to `Cc1ncc(OCc2ccccc2)c2c(-c3ccc(F)c4[nH]ncc34)c(N)c(=O)[nH]c12` [Example 181, 3-Amino-5-benzyloxy-4-(7-fluoro-1H-indazol-4-yl)-8-methyl-1H-1,7-naphthyridin-2-one], the IC50 is 20 nM.

For `Cc1c(I)cnc2c(-c3ccc(F)c4[nH]ncc34)c(N)c(=O)[nH]c12` [Example 116, 3-Amino-4-(7-fluoro-1H-indazol-4-yl)-7-iodo-8-methyl-1H-1,5-naphthyridin-2-one], the IC50 is less than 10 nM.

On to `Cc1cc2[nH]c(=O)c(N)c(-c3ccc(F)c4[nH]ncc34)c2nc1N1CCN(C(C)C)CC1` [Example 28, 3-Amino-4-(7-fluoro-1H-indazol-4-yl)-6-(4-isopropylpiperazin-1-yl)-7-methyl-1H-1,5-naphthyridin-2-one], for which the IC50 was 29.1 nM.

On to `Cc1cc2[nH]c(=O)c(N)c(-c3ccc(F)c4[nH]ncc34)c2nc1O[C@H]1C[C@H](F)C1` [Example 080, trans-3-Amino-6-(3-fluorocyclobutoxy)-4-(7-fluoro-1H-indazol-4-yl)-7-methyl-1H-1,5-naphthyridin-2-one], for which the IC50 is 21.1 nM.

As for `COc1ncc(F)c2[nH]c(=O)c(N)c(-c3ccc(F)c4[nH]ncc34)c12` [Example 170, 3-amino-8-fluoro-4-(7-fluoro-1H-indazol-4-yl)-5-methoxy-1H-1,6-naphthyridin-2-one], the IC50 was determined as 12.6 nM.

As to `Cc1c(C2(C)CC2)cnc2c(-c3ccc(F)c4[nH]ncc34)c(N)c(=O)[nH]c12` [Example 129, 3-Amino-4-(7-fluoro-1H-indazol-4-yl)-8-methyl-7-(1-methylcyclopropyl)-1H-1,5-naphthyridin-2-one], the IC50 was 12.8 nM.

As for `Nc1c(-c2ccc(F)c3[nH]ncc23)c2ncc(-c3ccns3)cc2[nH]c1=O` [Example 10, 3-Amino-4-(7-fluoro-1H-indazol-4-yl)-7-isothiazol-5-yl-1H-1,5-naphthyridin-2-one], the IC50 was determined as 42.9 nM.

Turning to `Cc1c(C2CC2)ncc2c(-c3ccc(F)c4[nH]ncc34)c(N)c(=O)[nH]c12` [Example 165, 3-amino-7-cyclopropyl-4-(7-fluoro-1H-indazol-4-yl)-8-methyl-1H-1,6-naphthyridin-2-one], the IC50 was less than 10 nM.

As for `Cc1cc2[nH]c(=O)c(N)c(-c3ccc(F)c4[nH]ncc34)c2nc1N1CC2CC1CN2C` (centres unmarked) [Example 30, 3-Amino-4-(7-fluoro-1H-indazol-4-yl)-7-methyl-6-(5-methyl-2,5-diazabicyclo[2.2.1]heptan-2-yl)-1H-1,5-naphthyridin-2-one], the IC50 turned out to be 15.3 nM.

These data come from patent US20260078122A1, “INDAZOLE COMPOUNDS AS PKMYT1 KINASE INHIBITORS” (Hoffmann-La Roche Inc., priority 2023, published 2026).
